Tests used:
Type in all cases: in vivo
Meloidogyne incognita = Meloidogyne incognita drench test (MELGIN D); conditions: soil, 504 h, 21 dat, read-out: % efficacy
Experimental: [table] To produce an appropriate active ingredient formulation, 1 part by weight of active ingredient is mixed with the specified amounts of solvent and emulsifier and the concentrate is diluted to the desired concentration with water, it being necessary to take into account the volume of soil into which drenching is effected. It should be ensured that a concentration of 20 ppm of emulsifier in the soil is not exceeded. For production of further test concentrations, the mixture is diluted with water. Pots filled with soil (loamy sand) are drenched with the active ingredient solution. An egg/larvae suspension of the southern root-knot nematode (Meloidogyne incognita) is added, and lettuce seeds are scattered over the soil surface and covered with quartz sand. The lettuce seeds germinate and the seedlings develop. The root-knots develop on the roots. After the desired time, the nematicidal effect is determined with reference to the root-knot formation in %. 100% means that no root-knots were found; 0% means that the number of root-knots on the treated plants corresponds to that on the untreated control.

Myzus persicae [1] = test: Myzus persicae drench test (MYZUPE D), savoy cabbage plants; conditions: soil, 240 h, 0.16 ppm, 10 dat, read-out: % efficacy
Experimental: [table] To produce an appropriate active ingredient formulation, 1 part by weight of active ingredient is mixed with the specified amounts of solvent and emulsifier and the concentrate is diluted to the desired concentration with water, it being necessary to take into account the volume of soil into which drenching is effected. It should be ensured that a concentration of 40 ppm of emulsifier in the soil is not exceeded. For production of further test concentrations, the mixture is diluted with water. Savoy cabbage plants (Brassica oleracea) in soil pots, infested by all stages of the green peach aphid (Myzus persicae), are drenched with an active ingredient formulation of the desired concentration. After the desired time, the efficacy in % is determined. 100% means that all the aphids have been killed; 0% means that no aphids have been killed.

Myzus persicae [2] = test: Myzus persicae spray test (MYZUPE S), bell pepper plants; conditions: 144 h, 6 dat, read-out: % efficacy
How it was run: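 Infested bell pepper plants (Capsicum annuum) sprayed with active ingredient in emulsifier-containing water (1000 ppm emulsifier; ammonium salts/penetrants at 1000 ppm if required). Kill scored in % after the chosen time; 100% = all aphids dead, 0% = none.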

Structure (SMILES)	Emax at 1 ppm (Meloidogyne incognita; 1 ppm)	Emax at 2 ppm (Meloidogyne incognita; 2 ppm)	Emax at 0.16 ppm (Myzus persicae [1])	Emax at 0.16 ppm (Myzus persicae [2]; 0.16 ppm)	Emax at 0.8 ppm (Myzus persicae [2]; 0.8 ppm)
CCS(=O)(=O)c1ccc(NC(=O)NC)nc1-c1nc2cc(C(F)(F)C(F)(F)F)nnc2n1C [Example I-08, 1-{5-(ethylsulfonyl)-6-[7-methyl-3-(pentafluoroethyl)-7H-imidazo[4,5-c]pyridazin-6-yl]pyridin-2-yl}-3-methylurea]	100%	100%			
CCS(=O)(=O)c1ccc(N(C)C(=O)NC)nc1-c1nc2cc(C(F)(F)C(F)(F)F)nnc2n1C [Example I-09]			99%	80%	100%
